Read-outs that look alike come from different tables or passages of the source. Marks after values point to notes of the source that are not given here.
Experiments:
[1] = Solid state characterisation of Form 1; type: physicochemical; conditions: crystalline solid
Description: A batch of RX-5902 was characterized by various solid state techniques. The supplied material was a crystalline solid, denoted as Form 1.

[2] = test system: human non-small cell lung tumor xenografts (A549); assay: Non-small cell lung cancer xenograft model; type: in vivo, mice; conditions: oral
Description: (§1) The efficacy of RX-5902 in human cancer xenograft mouse models is examined. Female nude mice (nu/nu, Harlan or CRL: NU(NCr)-Foxn1^nu, Charles River), 9-10 weeks old, with a body weight (BW) range of 15-30 g on day 1 of the study, are fed ad libitum water (reverse osmosis, 1 ppm C1), and NIH 31 Modified and Irradiated Lab Diet® consisting of 18.0% crude protein, 5.0% crude fat, and 5.0% crude fiber. The mice are housed on irradiated Enrich-o'Cobs™ Laboratory Animal Bedding in static microisolators on a 12-hour light cycle at 20-22° C. (68-72° F.) and 40-60% humidity. The study complies with the recommendations of the Guide for, Care and Use of Laboratory Animals with respect to restraint, husbandry, surgical procedures, feed and fluid regulation, and veterinary care.
Various human tumor cell lines (e.g., HCT116, HT29, H460, H69, Caki-1, CaSki, MiaPaca2, BxPC3 and Colo 205 cells [ATCC, Manassas, Va., USA]) are cultured according to ATCC's instruction. […]
(§2) The cells are harvested during exponential growth and re-suspended with phosphate buffered saline. Each test animal receives a subcutaneous (s.c.) injection of 5×10^6 tumor cells into the right flank and tumor growth is monitored as the average tumor size approaches the target range of 80-300 mm^3. […] Tumors and body weights are measured regularly until the study is terminated.
(§3) Tumors are measured in two dimensions using calipers, and volume is calculated using the formula: […]
Treatment efficacy is determined using data from Day 15. The MTV (n), the median tumor volume for the number of animals, n, on Day 15, is determined for each group. Percent tumor growth inhibition (% TGI) is defined as the difference between the MTV of the designated control group (vehicle administration) and the MTV of the drug-treated group, expressed as a percentage of the MTV of the control group: % TGI=[1−(MTVdrug treated/MTVcontrol)]×100 The data set for TGI analysis includes all animals in a group, except those that die due to treatment-related (TR) or non-treatment-related (NTR) causes. […]
Animals are monitored individually for tumor growth until Day 71. […]

[3] = test system: human renal tumor xenografts (Caki-1); type: in vivo; conditions: oral; for TGI: 5 days on/2 days off, Day 21
Description: as §1
Various human tumor cell lines (e.g., HCT116, HT29, H460, H69, Caki-1, CaSki, MiaPaca2, BxPC3 and Colo 205 cells [ATCC, Manassas, Va., USA]) are cultured according to ATCC's instruction. The tumor cells are cultured in tissue culture flasks in a humidified incubator at 37° C., in an atmosphere of 5% CO2 and 95% air.
The cells are harvested during exponential growth and re-suspended with phosphate buffered saline. Each test animal receives a subcutaneous (s.c.) injection of 5×10^6 tumor cells into the right flank and tumor growth is monitored as the average tumor size approaches the target range of 80-300 mm^3. When tumors reach the target size mice are randomized into several groups (n=10-20) and treatment with various regimens of RX-5902 or a positive (e.g., gemcitabine) or negative control (e.g.; vehicle, saline) is initiated. Tumors and body weights are measured regularly until the study is terminated.
Tumors are measured in two dimensions using calipers, and volume is calculated using the formula:
[formula] where w=width and 1=length, in mm, of the tumor. Tumor weight may be estimated with the assumption that 1 mg is equivalent to 1 mm^3 of tumor volume.
Treatment begins on Day 1 in eight groups of mice (n=10-20/group) with established subcutaneous tumors of a particular cell line. Each group is treated according to the study design. All doses are adjusted per body weight. Animals in each group are divided for efficacy and sampling purposes. There are also groups designated to vehicle control and no treatment for sampling purposes.
[…] […] Percent tumor growth inhibition (% TGI) is defined as the difference between the MTV of the designated control group (vehicle administration) and the MTV of the drug-treated group, expressed as a percentage of the MTV of the control group: % TGI=[1−(MTVdrug treated/MTVcontrol)]×100 The data set for TGI analysis includes all animals in a group, except those that die due to treatment-related (TR) or non-treatment-related (NTR) causes. An agent that produces at least 60% TGI in this assay is considered to be potentially therapeutically active.
Animals are monitored individually for tumor growth until Day 71. […] The time to endpoint (TTE) for each mouse is calculated with the following equation:
[formula] where b is the intercept and m is the slope of the line obtained by linear regression of a log-transformed tumor growth data set. […] In instances in which the log-transformed calculated TTE precedes the day prior to reaching endpoint or exceeds the day of reaching tumor volume endpoint, a linear interpolation is performed to approximate TTE. Any animal determined to have died from treatment-related (TR) causes is assigned a TTE value equal to the day of death. […]

[4] = test system: human pancreas tumor xenografts (MiaPaca-2); assay: Pancreatic cancer xenograft model; type: in vivo, mice; conditions: oral, 5ON/2OFF
Description: The efficacy of RX-5902 in human cancer xenograft mouse models is examined. Female nude mice (nu/nu, Harlan or CRL: NU(NCr)-Foxn1^nu, Charles River), 9-10 weeks old, with a body weight (BW) range of 15-30 g on day 1 of the study, are fed ad libitum water (reverse osmosis, 1 ppm C1), and NIH 31 Modified and Irradiated Lab Diet® consisting of 18.0% crude protein, 5.0% crude fat, and 5.0% crude fiber. The mice are housed on irradiated Enrich-o'Cobs™ Laboratory Animal Bedding in static microisolators on a 12-hour light cycle at 20-22° C. (68-72° F.) and 40-60% humidity. […]
as §2, §3
Treatment efficacy is determined using data from Day 15. The MTV (n), the median tumor volume for the number of animals, n, on Day 15, is determined for each group. […]
Animals are monitored individually for tumor growth until Day 71. […] The time to endpoint (TTE) for each mouse is calculated with the following equation: […]

[5] = Solubility assessment in solvents; type: physicochemical; conditions: organic solvent or mixture, thermodynamic from solid
Method: RX-5902 (ca. 2 mg) was weighed in a 1.5 ml clear glass vials. An aliquot of the corresponding solvent or solvent mixture was added at RT and solubility was assessed after 10 min as shown in Table 12. Solutions and suspensions were then placed into a shaking chamber at 50° C. for 10 more minutes. If no dissolution was observed, another aliquot of solvent was added and samples were placed in the shaking chamber at 50° C. for 10 more minutes. This procedure was repeated until dissolution was achieved or a maximum of 400 vol was added.

In the case of `COc1cc(OC)cc(N2CCN(C(=O)Nc3nc4cc(F)ccc4nc3OC)CC2)c1` [RX-5902, 4-(3,5-dimethoxyphenyl)-N-(7-fluoro-3-methoxyquinoxalin-2-yl)piperazine-1-carboxamide], the hygroscopicity [1] is reported as “non-hygroscopic”, the stability to humidity [1] is reported as “stable to exposure to humidity” and the TGI % ([2]; 160 mg/kg QWK) is reported as 30%*. The TGI % ([2]; 320 mg/kg QWK) was 26%*, the TGI % ([2]; 600 mg/kg QWK) was 26%* and the TGI ([3]; 50 mg/kg daily) was 80%. For the same compound, the complete tumor regressions ([3]; 70 mg/kg daily) was 1/10, the partial tumor regressions ([3]; 70 mg/kg daily) was 6/10 and the TGI ([3]; 70 mg/kg daily) was 96%. The “overall survival of the animals” value ([3]; 50 and 70 mg/kg daily, both doses (P<0.0001)) was “extended the overall survival”, the TGD % ([4]; 50 mg/kg) was 83%^ and the TGD % ([4]; 70 mg/kg) was 339%^. For the same compound, the solubility at 10 min ([5]; DMSO, 50 °C, read-out: Solubility at 50° C.) was ≥ 100 mg/mL, the solubility at 10 min ([5]; DMSO, read-out: Solubility at RT) was < 100 mg/mL and the solubility at 10 min ([5]; MEK, 50 °C, read-out: Solubility at 50° C.) was ≥ 12.5 mg/mL. The solubility at 10 min ([5]; MEK, read-out: Solubility at RT) was < 100 mg/mL, the solubility at 10 min ([5]; MIBK, 50 °C, read-out: Solubility at 50° C.) was ≥ 6.25 mg/mL and the solubility at 10 min ([5]; MIBK, read-out: Solubility at RT) was < 100 mg/mL. For the same compound, the solubility at 10 min ([5]; THF, 50 °C, read-out: Solubility at 50° C.) was ≥ 25 mg/mL, the solubility at 10 min ([5]; THF, read-out: Solubility at RT) was < 100 mg/mL and the solubility at 10 min ([5]; acetone, 50 °C, read-out: Solubility at 50° C.) was ≥ 12.5 mg/mL. For the same compound, the solubility at 10 min ([5]; acetone, read-out: Solubility at RT) was < 100 mg/mL, the solubility at 10 min ([5]; acetonitrile, 50 °C, read-out: Solubility at 50° C.) was ≥ 12.5 mg/mL and the solubility at 10 min ([5]; acetonitrile, read-out: Solubility at RT) was < 100 mg/mL. For the same compound, the solubility at 10 min ([5]; ethanol, 50 °C, read-out: Solubility at 50° C.) was ≥ 2.5 mg/mL, the solubility at 10 min ([5]; ethanol, read-out: Solubility at RT) was < 100 mg/mL and the solubility at 10 min ([5]; ethyl acetate, 50 °C, read-out: Solubility at 50° C.) was ≥ 12.5 mg/mL. The solubility at 10 min ([5]; ethyl acetate, read-out: Solubility at RT) was < 100 mg/mL, the solubility at 10 min ([5]; isopropanol-10% water, 50 °C, read-out: Solubility at 50° C.) was ≥ 2.5 mg/mL and the solubility at 10 min ([5]; isopropanol-10% water, read-out: Solubility at RT) was < 100 mg/mL. For the same compound, the solubility at 10 min ([5]; methanol, 50 °C, read-out: Solubility at 50° C.) was ≥ 2.5 mg/mL and the solubility at 10 min ([5]; methanol, read-out: Solubility at RT) was < 100 mg/mL.

— US9969698B2, “Quinoxalinyl-piperazinamide methods of use” (REXAHN PHARMACEUTICALS, INC., priority 2015, dated 2018)
